The values that follow come from the OligoGym collection.

HELM strings list units from the 5' end as sugar, base in round brackets, then linkage (d deoxyribose, r ribose, m 2'-O-methyl, p phosphodiester). Strings are as the collection lists them, not checked against the first reports. ss, as = sense and antisense strand; [lna] = locked nucleic acid (LNA); [s4r] = 4'-thioribose; [fl2r] = 2'-fluoro
Also: test system not given here.

For the series the following is noted: siRNA.
Take “RNA1{r(A)p.r(U)p.m(A)p.r(C)p.r(U)p.r(U)p.r(G)p.r(G)p.r(C)p.r(G)p.r(G)p.r(G)p.r(C)p.r(U)p.r(C)p.r(U)p.r(U)p.r(U)p.r(C)p.r(T)p.r(T)}|RNA2{r(G)p.r(A)p.r(A)p.r(A)p.r(G)p.r(A)p.r(G)p.r(C)p.r(C)p.r(C)p.r(G)p.r(C)p.m(C)p.r(A)p.r(A)p.r(G)p.r(U)p.r(A)p.r(U)p.r(T)p.r(T)}$$$RNA1{StrandType:ss}|RNA2{StrandType:as}$”: the target mRNA knockdown was found to be 72%.

The substance “RNA1{r(G)p.r(C)p.[fl2r](U)p.r(A)p.r(C)p.r(C)p.r(G)p.r(C)p.r(A)p.r(A)p.r(C)p.r(C)p.r(A)p.r(C)p.r(G)p.r(A)p.r(G)p.r(C)p.r(U)p.r(T)p.r(T)}|RNA2{r(A)p.r(G)p.r(C)p.r(U)p.r(C)p.r(G)p.r(U)p.r(G)p.r(G)p.r(U)p.r(U)p.r(G)p.r(C)p.r(G)p.r(G)p.[fl2r](U)p.r(A)p.r(G)p.r(C)p.r(T)p.r(T)}$$$RNA1{StrandType:ss}|RNA2{StrandType:as}$” displayed a target mRNA knockdown of 45%. Substance “RNA1{r(G)p.r(A)p.r(A)p.r(G)p.r(A)p.[fl2r](U)p.r(A)p.r(G)p.r(G)p.r(A)p.r(A)p.r(G)p.r(G)p.r(G)p.r(G)p.[fl2r](C)p.[fl2r](U)p.[fl2r](U)p.[fl2r](C)p.r(T)p.r(T)}|RNA2{r(G)p.r(A)p.r(A)p.r(G)p.r(C)p.r(C)p.r(C)p.r(C)p.r(U)p.r(U)p.r(C)p.r(C)p.r(U)p.r(A)p.r(U)p.r(C)p.r(U)p.r(U)p.r(C)p.r(T)p.r(T)}$$$RNA1{StrandType:ss}|RNA2{StrandType:as}$” had a target mRNA knockdown of 45%. Under “RNA1{r(C)p.r(U)p.r(C)p.r(U)p.r(C)p.r(C)p.r(U)p.[fl2r](A)p.r(C)p.r(C)p.r(U)p.r(U)p.r(C)p.r(U)p.r(C)p.r(C)p.r(U)p.r(C)p.r(U)p.r(T)p.r(T)}|RNA2{r(A)p.r(G)p.r(A)p.r(G)p.r(G)p.r(A)p.r(G)p.r(A)p.r(A)p.r(G)p.r(G)p.r(U)p.r(A)p.r(G)p.r(G)p.r(A)p.r(G)p.r(A)p.r(G)p.r(T)p.r(T)}$$$RNA1{StrandType:ss}|RNA2{StrandType:as}$” stands 78%.

Turning to “RNA1{r(A)p.r(C)p.r(C)p.r(U)p.[fl2r](U)p.r(A)p.r(A)p.r(G)p.r(G)p.r(A)p.r(C)p.r(C)p.r(A)p.r(C)p.r(C)p.r(G)p.r(G)p.r(A)p.r(U)p.r(T)p.r(T)}|RNA2{r(A)p.r(U)p.r(C)p.r(C)p.r(G)p.r(G)p.[fl2r](U)p.r(G)p.r(G)p.r(U)p.r(C)p.r(C)p.r(U)p.r(U)p.r(A)p.r(A)p.r(G)p.r(G)p.r(U)p.r(T)p.r(T)}$$$RNA1{StrandType:ss}|RNA2{StrandType:as}$”, the target mRNA knockdown came to 71%. Regarding “RNA1{[s4r](A)p.[s4r](A)p.[s4r](A)p.[s4r](C)p.[s4r](A)p.[s4r](U)p.r(G)p.r(C)p.r(A)p.r(G)p.r(A)p.r(A)p.r(A)p.[s4r](A)p.[s4r](U)p.[s4r](G)p.[s4r](C)p.[s4r](U)p.[s4r](G)p.r(T)p.r(T)}|RNA2{r(C)p.r(A)p.r(G)p.r(C)p.r(A)p.r(U)p.r(U)p.r(U)p.r(U)p.r(C)p.r(U)p.r(G)p.r(C)p.r(A)p.r(U)p.[s4r](G)p.[s4r](U)p.[s4r](U)p.[s4r](U)p.r(T)p.r(T)}$$$RNA1{StrandType:ss}|RNA2{StrandType:as}$”, the target mRNA knockdown amounted to 84.4%. For the substance “RNA1{m(A)p.m(A)p.r(C)p.r(C)p.r(C)p.m(A)p.r(C)p.r(C)p.m(A)p.r(C)p.m(A)p.r(G)p.r(C)p.m(U)p.m(A)p.r(G)p.m(A)p.m(A)p.r(C)p.m(U)p.m(U)}|RNA2{m(A)p.m(A)p.r(G)p.m(U)p.m(U)p.r(C)p.m(U)p.m(A)p.r(G)p.r(C)p.m(U)p.r(G)p.m(U)p.r(G)p.r(G)p.m(U)p.r(G)p.r(G)p.r(G)p.m(U)p.m(U)}$$$RNA1{StrandType:ss}|RNA2{StrandType:as}$”, the target mRNA knockdown came to 7%.

The substance “RNA1{r(C)p.r(U)p.r(U)p.r(A)p.r(C)p.r(G)p.r(C)p.r(U)p.r(G)p.r(A)p.r(G)p.r(U)p.r(A)p.r(C)p.r(U)p.r(U)p.r(C)p.r(G)p.r(A)p.r(T)p.r(T)}|RNA2{r(T)p.r(C)p.r(G)p.r(A)p.r(A)p.r(G)p.r(U)p.r(A)p.r(C)p.[lna](T)p.r(C)p.r(A)p.r(G)p.r(C)p.r(G)p.r(U)p.r(A)p.r(A)p.r(G)p.[lna](T)p.[lna](T)}$$$RNA1{StrandType:ss}|RNA2{StrandType:as}$” yielded a target mRNA knockdown of 60%. For “RNA1{r(A)p.r(G)p.r(C)p.r(C)p.[fl2r](C)p.r(A)p.r(G)p.r(A)p.[fl2r](U)p.r(A)p.r(G)p.r(C)p.r(U)p.r(C)p.r(U)p.r(U)p.[fl2r](C)p.r(A)p.r(G)p.r(T)p.r(T)}|RNA2{r(C)p.[fl2r](U)p.r(G)p.r(A)p.r(A)p.r(G)p.r(A)p.r(G)p.r(C)p.[fl2r](U)p.r(A)p.r(U)p.r(C)p.[fl2r](U)p.r(G)p.r(G)p.r(G)p.r(C)p.r(U)p.r(T)p.r(T)}$$$RNA1{StrandType:ss}|RNA2{StrandType:as}$”, the target mRNA knockdown was 61%. In the case of “RNA1{[lna](T)p.r(G)p.[lna](A)p.r(G)p.[lna](A)p.r(G)p.r(A)p.r(A)p.[lna](A)p.r(G)p.r(C)p.[lna](A)p.r(C)p.[lna](A)p.r(G)p.r(A)p.[lna](A)p.r(A)p.r(A)p.[lna](T)p.[lna](T)}|RNA2{r(U)p.r(G)p.r(A)p.r(G)p.r(A)p.r(G)p.r(A)p.r(A)p.r(A)p.r(G)p.r(C)p.r(A)p.r(C)p.r(A)p.r(G)p.r(A)p.r(A)p.r(A)p.r(A)p.d(T)p.d(T)}$$$RNA1{StrandType:ss}|RNA2{StrandType:as}$”, the target mRNA knockdown is 64%.

The substance “RNA1{m(A)p.r(G)p.m(A)p.r(A)p.m(G)p.r(U)p.m(A)p.r(C)p.m(C)p.r(A)p.m(G)p.r(G)p.m(A)p.r(G)p.m(G)p.r(C)p.m(G)p.r(U)p.m(U)p.r(T)p.r(T)}|RNA2{r(A)p.r(A)p.r(C)p.r(G)p.r(C)p.r(C)p.r(U)p.r(C)p.r(C)p.r(U)p.r(G)p.r(G)p.r(U)p.r(A)p.r(C)p.r(U)p.r(U)p.r(C)p.r(U)p.r(T)p.r(T)}$$$RNA1{StrandType:ss}|RNA2{StrandType:as}$” came in with a target mRNA knockdown of 24%. As for “RNA1{r(A)p.r(A)p.r(A)p.r(C)p.r(C)p.r(C)p.r(C)p.m(U)p.r(A)p.r(G)p.r(A)p.r(G)p.r(G)p.r(G)p.m(C)p.r(A)p.r(A)p.r(G)p.r(U)p.r(T)p.r(T)}|RNA2{r(A)p.r(C)p.r(U)p.m(U)p.r(G)p.r(C)p.r(C)p.r(C)p.r(U)p.r(C)p.m(U)p.r(A)p.r(G)p.r(G)p.r(G)p.r(G)p.r(U)p.r(U)p.r(U)p.r(T)p.r(T)}$$$RNA1{StrandType:ss}|RNA2{StrandType:as}$”, the target mRNA knockdown came to 78%. The substance “RNA1{r(C)p.r(U)p.r(U)p.r(A)p.r(C)p.r(G)p.r(C)p.r(U)p.r(G)p.r(A)p.r(G)p.r(U)p.r(A)p.r(C)p.r(U)p.r(U)p.r(C)p.r(G)p.r(A)p.r(T)p.r(T)}|RNA2{r(U)p.r(C)p.r(G)p.r(A)p.r(A)p.r(G)p.r(U)p.r(A)p.r(C)p.r(U)p.r(C)p.r(A)p.[lna](G)p.r(C)p.r(G)p.r(U)p.r(A)p.r(A)p.r(G)p.r(T)p.r(T)}$$$RNA1{StrandType:ss}|RNA2{StrandType:as}$” returned a target mRNA knockdown of 65%. Regarding “RNA1{m(C)p.r(C)p.m(G)p.r(A)p.m(G)p.r(A)p.m(G)p.r(C)p.m(U)p.r(C)p.m(U)p.r(C)p.m(C)p.r(U)p.m(A)p.r(C)p.m(C)p.r(U)p.m(U)p.r(T)p.r(T)}|RNA2{r(A)p.r(A)p.r(G)p.r(G)p.r(U)p.r(A)p.r(G)p.r(G)p.r(A)p.r(G)p.r(A)p.r(G)p.r(C)p.r(U)p.r(C)p.r(U)p.r(C)p.r(G)p.r(G)p.r(T)p.r(T)}$$$RNA1{StrandType:ss}|RNA2{StrandType:as}$”, the target mRNA knockdown was found to be 34%.
